The record followed here is ChEMBL document CHEMBL1134948, “The antimicrobial natural product chuangxinmycin and some synthetic analogues are potent and selective inhibitors of bacterial tryptophanyl tRNA synthetase” (Bioorg Med Chem Lett, 2002).

In brackets after ≈: the same amount, converted by molar mass. Several values for one entry are separate records, joined by “and”; a condition that tells them apart may be missing. Identical values can stand only once. Activity calls are given as the source filed them. The rule behind the calls is not given here.

In test [1] the test system is Staphylococcus aureus. As to the kind of experiment: Minimum inhibitory concentration against Staphylococcus aureus Oxford at a concentration of 32 ug/mL. It is filed as functional, organism-based.
Test [2] relates to Nucleic Acid. Put plainly: Compound was tested for inhibitory activity against tryptophanyl tRNA synthetase in Staphylococcus aureus; NI means no inhibition uM. It is filed as nucleic-acid assay.
Test [3] concerns Haemophilus influenzae. Put plainly: Minimum inhibitory concentration against Haemophilus influenzae Q1 at a concentration of 32 ug/mL. It is filed as functional, organism-based.
In test [4] the test system is Moraxella catarrhalis. Put plainly: Minimum inhibitory concentration against Moraxella catarrhalis 1502 at a concentration of 32 ug/mL. It counts as functional, organism-based.
Test [5] relates to Nucleic Acid. Put plainly: Compound was tested for inhibitory activity against tryptophanyl tRNA synthetase in Staphylococcus aureus Oxford; No significant inhibition up to 20 uM concentration. It is filed as nucleic-acid assay.
The nature of test [6]: Compound was tested for inhibitory activity against tryptophanyl tRNA synthetase in Staphylococcus aureus. It counts as nucleic-acid assay.
Test [7] concerns Haemophilus influenzae. As to the kind of experiment: Minimum inhibitory concentration against Haemophilus influenzae Q1. It is filed as functional.
Test [8] concerns Staphylococcus aureus. Put plainly: Minimum inhibitory concentration against Staphylococcus aureus oxford. It counts as functional.
Test [9] concerns Moraxella catarrhalis. As to the kind of experiment: Minimum inhibitory concentration against Moraxella catarrhalis 1502. It is filed as functional.
In test [10] the target is Nucleic Acid. Put plainly: Binding affinity against Tryptophanyl tRNA synthetase was determined. It is filed as nucleic-acid assay, Staphylococcus aureus.

Broadly, the IC50 is the concentration that inhibits the measured activity by half. A low value points to greater potency in that assay. On to `O=C([O-])[C@@H]1Sc2cccc3[nH]cc(c23)[C@@H]1CO.[Na+]`, for which the MIC result with Staphylococcus aureus [1], with Haemophilus influenzae [3] and with Moraxella catarrhalis [4] was “inactive” in each case. For the same compound, the IC50 result with Nucleic Acid [2] was “No inhibition”.

With `COC(=O)C1Sc2cccc3[nH]cc(c23)C1C` (stereo unspecified), in the test with Nucleic Acid [5], the Activity result is “No significant inhibition up to 20 uM concentration”. With `CC1c2c[nH]c3cccc(c23)SC1C#N` (stereo unspecified), in test [6], the IC50 stood at 1100 nM. On to `CC1c2c[nH]c3cccc(c23)SC1C=O` (stereo unspecified), for which, in test [6], inhibition was half-maximal at 90 nM (IC50). Consider `O=C1OC[C@H]2c3c[nH]c4cccc(c34)S[C@@H]12`, for which the MIC against Haemophilus influenzae [7] stood at 16 µg/mL (≈ 69.2 µM); in the test on Staphylococcus aureus [8] it was 4 µg/mL (≈ 17.3 µM); in the test with Moraxella catarrhalis [9], 16 µg/mL (≈ 69.2 µM). The IC50 in test [6] amounted to 230 nM. As for `CC1c2c[nH]c3cccc(c23)SC1c1nnn[nH]1` (stereo unspecified), the IC50 result in the test with Nucleic Acid [2] is reported as “No inhibition”. Take `CC1c2c[nH]c3cccc(c23)SC1C(N)=O` (stereo unspecified): the Activity entry in the test on Nucleic Acid [5] is “No significant inhibition up to 20 uM concentration”. On to `CC1c2c[nH]c3cccc(c23)SC1C(=O)NO` (stereo unspecified), for which the IC50 entry in the test on Nucleic Acid [2] was “No inhibition”. A word on the Ki: it is the equilibrium dissociation constant of an inhibitor or competing ligand from its target. As for `C[C@H]1c2c[nH]c3cccc(c23)S[C@H]1C(=O)O` [CHUANGXINMYCIN], the IC50 in [6] was 30 nM and 200 nM. In addition, at Nucleic Acid [10], the Ki turned out to be 20 nM.
